Reference: the NIST ThermoML archive (doi:10.1021/je0502344)

What was measured:
[1] = xn = mol fraction of the nth substance listed; settings: 101.33 kPa, Liquid
[2] = 101.33 kPa, Liquid

CCCCCCCCC=O [nonanal] + CCO
[1]
Settings | mass density, 298.15 K [kg/m3] | mass density, 308.15 K [kg/m3] | mass density, 318.15 K [kg/m3] | viscosity, 298.15 K [mPa·s] | viscosity, 308.15 K [mPa·s] | viscosity, 318.15 K [mPa·s]
x1 = 0.1034 | 787.7 | 780.37 | 766.24 | 1.116 | 0.928 | 0.798
x1 = 0.2039 | 790.72 | 782.99 | 768.92 | 1.144 | 0.96 | 0.83
x1 = 0.293 | 793.79 | 785.65 | 771.64 | 1.169 | 0.989 | 0.859
x1 = 0.3939 | 797.7 | 789.05 | 775.11 | 1.199 | 1.023 | 0.893
x1 = 0.5045 | 802.52 | 793.24 | 779.4 | 1.232 | 1.061 | 0.931
x1 = 0.5943 | 806.85 | 797 | 783.24 | 1.26 | 1.093 | 0.964
x1 = 0.7116 | 813.07 | 802.4 | 788.76 | 1.297 | 1.137 | 1.009
x1 = 0.7855 | 817.31 | 806.08 | 792.53 | 1.32 | 1.165 | 1.038
x1 = 0.898 | 824.25 | 812.11 | 798.69 | 1.357 | 1.209 | 1.084
x1 = 1 | 831.04 | 818.01 | 804.72 | 1.392 | 1.251 | 1.127

CCO [ethanol] + CCCCCCCCCC=O
[1], x2 = 0
Settings | mass density [kg/m3] | viscosity [mPa·s]
298.15 K | 785.08 | 1.088
308.15 K | 778.09 | 0.897
318.15 K | 763.91 | 0.767

CCO [ethanol] + CCCCCC=O
[1], x2 = 0
Settings | mass density [kg/m3] | viscosity [mPa·s]
298.15 K | 785.08 | 1.088
308.15 K | 778.09 | 0.897
318.15 K | 763.91 | 0.767

CCCCCCCCCC=O [decanal] + CCO
[1]
Settings | mass density, 298.15 K [kg/m3] | mass density, 308.15 K [kg/m3] | mass density, 318.15 K [kg/m3] | viscosity, 298.15 K [mPa·s] | viscosity, 308.15 K [mPa·s] | viscosity, 318.15 K [mPa·s]
x1 = 0.1011 | 785.98 | 778.7 | 764.59 | 1.128 | 0.939 | 0.808
x1 = 0.2102 | 787.14 | 779.48 | 765.47 | 1.174 | 0.987 | 0.854
x1 = 0.3013 | 788.25 | 780.24 | 766.32 | 1.213 | 1.028 | 0.895
x1 = 0.412 | 789.78 | 781.28 | 767.48 | 1.262 | 1.081 | 0.947
x1 = 0.5105 | 791.31 | 782.32 | 768.64 | 1.308 | 1.131 | 0.997
x1 = 0.5836 | 792.55 | 783.15 | 769.58 | 1.343 | 1.169 | 1.035
x1 = 0.6889 | 794.48 | 784.47 | 771.05 | 1.395 | 1.226 | 1.092
x1 = 0.8008 | 796.73 | 785.99 | 772.76 | 1.452 | 1.29 | 1.157
x1 = 0.9145 | 799.23 | 787.68 | 774.65 | 1.513 | 1.358 | 1.226
x1 = 1 | 801.24 | 789.05 | 776.18 | 1.56 | 1.412 | 1.281

CCCCCC=O [hexanal]
[2]
Settings | mass density [kg/m3] | viscosity [mPa·s]
298.15 K | 833.12 | 0.805
308.15 K | 818.94 | 0.716
318.15 K | 804.31 | 0.639

CCO [ethanol] + CCCCCCCC=O
[1], x2 = 0
Settings | mass density [kg/m3] | viscosity [mPa·s]
298.15 K | 785.08 | 1.088
308.15 K | 778.09 | 0.897
318.15 K | 763.91 | 0.767

CCCCCCCC=O [octanal]
[2]
Settings | mass density [kg/m3] | viscosity [mPa·s]
298.15 K | 821.07 | 1.2
308.15 K | 807.34 | 1.074
318.15 K | 793.85 | 0.965

CCO [ethanol]
[2]
Settings | mass density [kg/m3] | viscosity [mPa·s]
298.15 K | 785.08 | 1.088
308.15 K | 778.09 | 0.897
318.15 K | 763.91 | 0.767

CCCCCC=O [hexanal] + CCO
[1]
Settings | mass density, 298.15 K [kg/m3] | mass density, 308.15 K [kg/m3] | mass density, 318.15 K [kg/m3] | viscosity, 298.15 K [mPa·s] | viscosity, 308.15 K [mPa·s] | viscosity, 318.15 K [mPa·s]
x1 = 0.1094 | 788 | 780.57 | 766.36 | 1.053 | 0.875 | 0.752
x1 = 0.2049 | 791.01 | 783.13 | 768.9 | 1.023 | 0.857 | 0.739
x1 = 0.3226 | 795.33 | 786.81 | 772.53 | 0.987 | 0.834 | 0.723
x1 = 0.4037 | 798.69 | 789.67 | 775.36 | 0.963 | 0.819 | 0.712
x1 = 0.5027 | 803.22 | 793.52 | 779.17 | 0.935 | 0.801 | 0.7
x1 = 0.6207 | 809.24 | 798.64 | 784.23 | 0.902 | 0.78 | 0.685
x1 = 0.7108 | 814.29 | 802.93 | 788.47 | 0.878 | 0.764 | 0.674
x1 = 0.81 | 820.3 | 808.04 | 793.53 | 0.852 | 0.747 | 0.662
x1 = 0.9226 | 827.69 | 814.32 | 799.74 | 0.824 | 0.729 | 0.648
x1 = 1 | 833.12 | 818.94 | 804.31 | 0.805 | 0.716 | 0.639

CCCCCCCC=O [octanal] + CCO
[1]
Settings | mass density, 298.15 K [kg/m3] | mass density, 308.15 K [kg/m3] | mass density, 318.15 K [kg/m3] | viscosity, 298.15 K [mPa·s] | viscosity, 308.15 K [mPa·s] | viscosity, 318.15 K [mPa·s]
x1 = 0.1077 | 787.23 | 779.83 | 765.7 | 1.1 | 0.915 | 0.786
x1 = 0.2019 | 789.45 | 781.64 | 767.54 | 1.11 | 0.93 | 0.803
x1 = 0.3178 | 792.62 | 784.21 | 770.18 | 1.122 | 0.95 | 0.825
x1 = 0.3977 | 795.08 | 786.22 | 772.23 | 1.131 | 0.964 | 0.84
x1 = 0.4952 | 798.4 | 788.92 | 774.99 | 1.142 | 0.981 | 0.859
x1 = 0.6115 | 802.81 | 792.5 | 778.66 | 1.155 | 1.001 | 0.883
x1 = 0.7003 | 806.51 | 795.5 | 781.74 | 1.165 | 1.018 | 0.901
x1 = 0.798 | 810.9 | 799.07 | 785.39 | 1.176 | 1.036 | 0.921
x1 = 0.9089 | 816.3 | 803.46 | 789.88 | 1.189 | 1.057 | 0.945
x1 = 1 | 821.07 | 807.34 | 793.85 | 1.2 | 1.074 | 0.965

CCCCCCCCC=O [nonanal]
[2]
Settings | mass density [kg/m3] | viscosity [mPa·s]
298.15 K | 831.04 | 1.392
308.15 K | 818.01 | 1.251
318.15 K | 804.72 | 1.127

CCO [ethanol] + CCCCCCCCC=O
[1], x2 = 0
Settings | mass density [kg/m3] | viscosity [mPa·s]
298.15 K | 785.08 | 1.088
308.15 K | 778.09 | 0.897
318.15 K | 763.91 | 0.767

CCCCCCCCCC=O [decanal]
[2]
Settings | mass density [kg/m3] | viscosity [mPa·s]
298.15 K | 801.24 | 1.56
308.15 K | 789.05 | 1.412
318.15 K | 776.18 | 1.281
